ChEMBL document CHEMBL1142880, “Synthesis and anti-HIV activity evaluation of 1-[(alkenyl or alkynyl or alkyloxy)methyl]-5-alkyl-6-(1-naphthoyl)-2,4-pyrimidinediones as novel non-nucleoside HIV-1 reverse transcriptase inhibitors” (Eur J Med Chem, 2007)

Experiments:
[1] = tested on: Human immunodeficiency virus 1; experiment: Antiviral activity against HIV1 3B in MT4 cells after 4 days by MTT method; type: functional, organism-based; conditions: Human immunodeficiency virus 1, 3B, MT4, 96 h
[2] = tested on: Human immunodeficiency virus 2; experiment: Antiviral activity against HIV2 ROD in MT4 cells after 4 days by MTT method; type: functional, organism-based; conditions: Human immunodeficiency virus 2, ROD, MT4, 96 h
[3] = Cytotoxicity against MT4 cells after 4 days by MTT method; type: cell-based; conditions: human
[4] = Selectivity index, ratio of CC50 for MT4 cells to IC50 for HIV1 3B; type: functional

SMILES | IC50 [1] | IC50 [2] | CC50 at 96 h [3] | Ratio CC50/IC50 [4]
CCc1c(C(=O)c2cccc3ccccc23)n(COCC=C(C)C)c(=O)[nH]c1=O | 6.89 µM | > 36.4 µM | 36.4 µM | 5
CC(C)c1c(C(=O)c2cccc3ccccc23)n(COCc2ccccc2)c(=O)[nH]c1=O | 0.11 µM | > 26.9 µM | 26.9 µM | 233
CC(C)=CCn1c(C(=O)c2cccc3ccccc23)c(C)c(=O)[nH]c1=O | > 44.6 µM | > 131 µM | 44.6 µM | <1
CC(=O)OC/C=C(\C)Cn1c(C(=O)c2cccc3ccccc23)c(C)c(=O)[nH]c1=O | 41.4 µM | > 200 µM | 200 µM | 5
CCOCn1c(C(=O)c2cccc3ccccc23)c(C)c(=O)[nH]c1=O | 4.02 µM | > 51.7 µM | 51.7 µM | 13
Cc1c(C(=O)c2cccc3ccccc23)n(COCc2ccccc2)c(=O)[nH]c1=O | 1.6 µM | > 45.6 µM | 45.6 µM | 29
C=CCOCn1c(C(=O)c2cccc3ccccc23)c(C)c(=O)[nH]c1=O | 2.11 µM | > 131 µM | 131 µM | 62
CCc1c(C(=O)c2cccc3ccccc23)n(C/C=C/C(=O)OC)c(=O)[nH]c1=O | 0.71 µM | > 38.6 µM | 38.6 µM | 54
CCc1c(C(=O)c2cccc3ccccc23)n(CC2CC=CC2)c(=O)[nH]c1=O | 0.22 µM | > 18.6 µM | 18.6 µM | 84
CCOCn1c(C(=O)c2cccc3ccccc23)c(CC)c(=O)[nH]c1=O | 0.28 µM | > 23 µM | 23 µM | 78
CCc1c(C(=O)c2cccc3ccccc23)n(COCc2ccc([N+](=O)[O-])cc2)c(=O)[nH]c1=O | 0.54 µM | > 30.5 µM | 30.5 µM | 55
C=CCOCn1c(C(=O)c2cccc3ccccc23)c(CC)c(=O)[nH]c1=O | 0.19 µM | > 45.6 µM | 45.6 µM | 243
CCc1c(C(=O)c2cccc3ccccc23)n(CC#Cc2ccccc2)c(=O)[nH]c1=O | 0.21 µM | > 17 µM | 17 µM | 83
CCc1c(C(=O)c2cccc3ccccc23)n(COCC2CC2)c(=O)[nH]c1=O | 0.93 µM | > 45.3 µM | 45.3 µM | 48
Cc1c(C(=O)c2cccc3ccccc23)n(CC#Cc2ccccc2)c(=O)[nH]c1=O | 2.79 µM | > 29.9 µM | 29.9 µM | 11
CC(C)=CCn1c(C(=O)c2cccc3ccccc23)c(C(C)C)c(=O)[nH]c1=O | 2.42 µM | > 30.8 µM | 30.8 µM | 13
Cc1c(C(=O)c2cccc3ccccc23)n(COCC2CC2)c(=O)[nH]c1=O | 7.69 µM | > 77.6 µM | 77.6 µM | 10
CCc1c(C(=O)c2cccc3ccccc23)n(COCc2ccccc2)c(=O)[nH]c1=O | 0.15 µM | > 38.6 µM | 38.6 µM | 257
O=c1[nH]cnc2c1ncn2[C@H]1CC[C@@H](CO)O1 [DIDANOSINE] |  |  | ≥ 529 µM | >=98
Cc1c(Sc2ccccc2)n(COCCO)c(=O)[nH]c1=O [HEPT] |  | > 406 µM | 405 µM | 80
